± gives the expanded uncertainty stated by the source.
Columns and labels:
[1] = wn = mass fraction of the nth substance listed; conditions: 101 kPa, Liquid

Cn1cc[n+](C)c1.[Cl-] [1,3-dimethylimidazolium chloride]
Normal melting temperature (Crystal, visual observation): 126.00 ± 4 °C

Cn1cc[n+](C)c1.[Cl-] [1,3-dimethylimidazolium chloride] + O
mass density ([1]; 293.15 K, w2 = 0.2004): 1157.78 ± 1.6 kg/m3
mass density ([1]; 293.15 K, w2 = 0.3015): 1135.29 ± 1.4 kg/m3
mass density ([1]; 293.15 K, w2 = 0.4019): 1111.77 ± 1.2 kg/m3
mass density ([1]; 293.15 K, w2 = 0.5001): 1089.04 ± 1.1 kg/m3
mass density ([1]; 293.15 K, w2 = 0.5992): 1067.56 ± 0.94 kg/m3
mass density ([1]; 293.15 K, w2 = 0.7003): 1047.52 ± 0.81 kg/m3
mass density ([1]; 293.15 K, w2 = 0.8003): 1030.53 ± 0.7 kg/m3
mass density ([1]; 293.15 K, w2 = 0.898): 1014.07 ± 0.59 kg/m3
mass density ([1]; 298.15 K, w2 = 0.2004): 1154.79 ± 1.5 kg/m3
mass density ([1]; 298.15 K, w2 = 0.3015): 1132.4 ± 1.4 kg/m3
mass density ([1]; 298.15 K, w2 = 0.4019): 1109.03 ± 1.2 kg/m3
mass density ([1]; 298.15 K, w2 = 0.5001): 1087.14 ± 1.1 kg/m3
mass density ([1]; 298.15 K, w2 = 0.5992): 1065.77 ± 0.93 kg/m3
mass density ([1]; 298.15 K, w2 = 0.7003): 1045.81 ± 0.8 kg/m3
mass density ([1]; 298.15 K, w2 = 0.8003): 1027.98 ± 0.68 kg/m3
mass density ([1]; 298.15 K, w2 = 0.898): 1012.2 ± 0.58 kg/m3
mass density ([1]; 303.15 K, w2 = 0.2004): 1152.15 ± 1.5 kg/m3
mass density ([1]; 303.15 K, w2 = 0.3015): 1129.93 ± 1.4 kg/m3
mass density ([1]; 303.15 K, w2 = 0.4019): 1106.69 ± 1.2 kg/m3
mass density ([1]; 303.15 K, w2 = 0.5001): 1084.55 ± 1.1 kg/m3
mass density ([1]; 303.15 K, w2 = 0.5992): 1063.34 ± 0.92 kg/m3
mass density ([1]; 303.15 K, w2 = 0.7003): 1043.7 ± 0.78 kg/m3
mass density ([1]; 303.15 K, w2 = 0.8003): 1026.15 ± 0.67 kg/m3
mass density ([1]; 303.15 K, w2 = 0.898): 1010.57 ± 0.57 kg/m3
mass density ([1]; 308.15 K, w2 = 0.2004): 1149.31 ± 1.5 kg/m3
mass density ([1]; 308.15 K, w2 = 0.3015): 1127.15 ± 1.3 kg/m3
mass density ([1]; 308.15 K, w2 = 0.4019): 1104.22 ± 1.2 kg/m3
mass density ([1]; 308.15 K, w2 = 0.5001): 1082.68 ± 1.1 kg/m3
mass density ([1]; 308.15 K, w2 = 0.5992): 1061.63 ± 0.91 kg/m3
mass density ([1]; 308.15 K, w2 = 0.7003): 1041.8 ± 0.77 kg/m3
mass density ([1]; 308.15 K, w2 = 0.8003): 1024.53 ± 0.66 kg/m3
mass density ([1]; 308.15 K, w2 = 0.898): 1008.86 ± 0.56 kg/m3
mass density ([1]; 313.15 K, w2 = 0.2004): 1146.46 ± 1.5 kg/m3
mass density ([1]; 313.15 K, w2 = 0.3015): 1124.33 ± 1.3 kg/m3
mass density ([1]; 313.15 K, w2 = 0.4019): 1101.07 ± 1.2 kg/m3
mass density ([1]; 313.15 K, w2 = 0.5001): 1080.38 ± 1 kg/m3
mass density ([1]; 313.15 K, w2 = 0.5992): 1059.44 ± 0.89 kg/m3
mass density ([1]; 313.15 K, w2 = 0.7003): 1039.52 ± 0.76 kg/m3
mass density ([1]; 313.15 K, w2 = 0.8003): 1022.66 ± 0.65 kg/m3
mass density ([1]; 313.15 K, w2 = 0.898): 1007.2 ± 0.55 kg/m3
mass density ([1]; 318.15 K, w2 = 0.2004): 1143.59 ± 1.5 kg/m3
mass density ([1]; 318.15 K, w2 = 0.3015): 1121.85 ± 1.3 kg/m3
mass density ([1]; 318.15 K, w2 = 0.4019): 1098.34 ± 1.1 kg/m3
mass density ([1]; 318.15 K, w2 = 0.5001): 1078.58 ± 1 kg/m3
mass density ([1]; 318.15 K, w2 = 0.5992): 1057.08 ± 0.88 kg/m3
mass density ([1]; 318.15 K, w2 = 0.7003): 1037.12 ± 0.74 kg/m3
mass density ([1]; 318.15 K, w2 = 0.8003): 1021.05 ± 0.64 kg/m3
mass density ([1]; 318.15 K, w2 = 0.898): 1005.65 ± 0.54 kg/m3

CC#N [acetonitrile]
mass density (308.1 K, 101.33 kPa, Liquid, Vibrating tube method): 765.98 ± 4.2 kg/m3
